Literature values as cited in patent publication US20230024050A1, “Dermatological Compositions and Methods of Treatment against Cutaneous T-Cell Lymphoma” (Soligenix, Inc., priority 2021, published 2023).
Read-outs that look alike come from different tables or passages of the source.

Legend:
[1] = system: CTCL patients IA, IB, IIA refractory to ≥2 previous treatments; conditions: at end of therapy, time not stated
[2] = administered intravenously at much higher doses

| SMILES | Response (CAILS), 24 Week ([1]; 6.5 mg/m^2, N = 15) [%^1] | Response (CAILS), 24 Week ([1]; 300 mg/m^2, N = 28) [%^1] | Response (CAILS), 24 Week ([1]; >300 mg/m^2, N = 15) [%^1] | Significant AEs on intravenous administration [2] |
| --- | --- | --- | --- | --- |
| C=C(c1ccc(C(=O)O)cc1)c1cc2c(cc1C)C(C)(C)CCC2(C)C [Oral Bexarotene, Bexarotene] | 20 | 36 | 47 |  |
| Cc1cc(O)c2c(=O)c3c(O)cc(O)c4c5c(O)cc(O)c6c(=O)c7c(O)cc(C)c8c1c2c(c34)c(c78)c65 [hypericin] |  |  |  | does not cause significant AEs other than those related to photoactivity |
